Legend:
[1] = system: rat femur fracture model; test: Rat femur fracture model, fracture healing; assay type: in vivo
Excerpt: Certain embodiments of the methods disclosed herein also include the use of the microprojection arrays as described herein in their various embodiments to accelerate fracture healing in a patient who has suffered one or more fractures and for which the fractures are not completely healed. Healing of bone fractures (eg long bone fractures) involves endochondral and intramembranous bone formation, which together form a callus that achieves union, stabilization, and gradual recovery of bone strength. […] Sixteen rats from each group were necropsied after 4 and 6 weeks of healing, with 12 fractured femurs per group used for micro-CT and biomechanical testing and the other 4 femurs used for micro-CT and histology.

[2] = Subcutaneous 80 μg abaloparatide versus placebo: fractures, BMD, TBS; assay type: in vivo; conditions: subcutaneous administration
Method: In certain embodiments, the abaloparatide-SC treatment comprises subcutaneous administration of an aqueous formulation comprising abaloparatide (about 2 mg/mL) in an acetate buffer, with a pH of about 4.5 to about 5.6, or about 5.1. Optionally, the aqueous formulation further comprises phenol (about 5 mg/mL). In certain examples of these embodiments, the acetate buffer comprises tri-hydrate sodium acetate (about 5 mg/mL) with pH (e.g., about 4.5 to about 5.6, or about 5.1) adjusted with acetic acid. Unless specifically stated otherwise, comparative abaloparatide sc dose use an 80 μg dose delivered subcutaneously to the periumbilicular region of the abdomen of the patient.

[3] = system: ovariectomy-induced osteopenic rats and monkeys; conditions: cited from earlier work

[Glu^22,25, Leu^23,28,31, Aib^29, Lys^26,30]hPTHrP(1-34)NH2 [abaloparatide]
callus stiffness, higher vs VEH ([1]; 5 ug/kg/d, week 4, three-point bending): 60%
callus stiffness, higher vs VEH ([1]; 5 ug/kg/d, week 6): 112%
callus peak load, higher vs VEH ([1]; 25 ug/kg/d, week 4): 77%
callus stiffness, higher vs VEH ([1]; 25 ug/kg/d, week 4, three-point bending): 96%
callus area (histomorphometry) ([1]; 5 and 25 ug/kg/d, week 4, vs VEH): significantly greater callus area
callus bone volume, bone volume fraction, and BMC (micro-CT) ([1]; 5 and 25 ug/kg/d, weeks 4 and 6, vs VEH): significantly greater
cortical bridging across the fracture gap (semi-quantitative histologic scoring) ([1]; 5 or 25 ug/kg/d sc daily, week 4, vs VEH): significantly greater bridging
callus peak load vs VEH ([1]; both abaloparatide groups, week 6): numerically higher
BMD and/or TBS at the lumbar spine, total hip, and femoral neck [2]: improve
bone loss [3]: complete reversal of bone loss

Source: US10568937B2, “Formulations of abaloparatide, transdermal patches thereof, and uses thereof” (priority 2016, dated 2020)
